“Also recorded” adds a separate entry of the source.
Experiments:
osteosarcoma U2OS cells = experiment: Induction of cytoplasmic vacuoles (enlarged lysosomes) in U2OS cells, light microscopy; type: cell-based, human
Source text: Vehicle is the concentration of DMSO that was introduced by addition of compounds.
These effects are dependent on the compound selected, its concentration and the length of time cells are exposed to the compound.
(§1) Cells were obtained from the American Type Culture Collection. BORCS5-KO HeLa cells have been described previously. Osteosarcoma U2OS were routinely seeded in 6-well plates (0.5×10^5 cells/well) and cultured in Dulbecco's Modified Eagle's medium supplemented with L-Glutamine, 4.5 g/L Glucose, Sodium Pyruvate, Phenol Red, and either heat-inactivated or normal 10% fetal calf serum at 37° C. in 5% CO2. Approximately 15-19 hours later, the indicated compound was added in 1:1000 dilutions. Results were the same using either heat-inactivated or normal fetal calf serum. Melanoma A375, embryonic kidney 293T and human foreskin fibroblast Hs27 cells were cultured in the same medium, except that cells were seeded into 12-well plates at 10^3 cells/well.
Phase contrast photographs were taken on an Olympus CKX41 microscope. Confocal photographs were taken on a Leica TCS-SP5II. For immunofluorescence microscopy, the cells were fixed in 4% paraformaldehyde (Electron Microscopy Sciences, 15714) in PBS for 12 min, permeabilized with 0.2% Triton X-100 in PBS for 10 min, and blocked in 0.2% BSA (Sigma-Aldrich, A7030) in PBS for 30 min at 37° C. For endogenous LC3 staining, cells were permeabilized in methanol for 20 min at −20° C. after the paraformaldehyde fixation. The cells were sequentially incubated with primary antibodies (LAMP1: Developmental Studies Hybridoma Bank; LC3 and LAMTOR4: Cell Signaling Technology; FLAG epitope: Sigma-Aldrich) and secondary antibodies conjugated to Alexa Fluor dyes (Life Technologies) diluted with 0.2% BSA in PBS for 30 min at 37° C. Coverslips were mounted on glass slides using Fluoromount-G (Electron Microscopy Sciences, 17984-24). Cells were imaged using a Zeiss LSM880 with AiryScan confocal microscope (Carl Zeiss AG, Oberkochen, Germany) or a Leica TCS-SP5II. The final composite images were created and properly analyzed for lysosomal size examination using ImageJ (NIH).

U2OS cells [1] = experiment: Size of LAMP1-RFP-labeled vacuoles (lysosomes), confocal microscopy; type: cell-based, human
Method: LAMP1 protein is a lysosomal membrane marker. Nuclei were stained with DAPI. Therefore, the enlarged cytoplasmic vacuoles induced by compounds from this invention are lysosomes.
The selection of circular, enlarged, lysosomes was carried out using a size mask of 0.5 to 5.0 μm^2. Punctate lysosomes were selected with a size mask of 0.1 to 1.5 μm^2. Thresholds were the same for all images. Clustered lysosomes were not included in the size analysis. The mean area (μm^2)±SEM was plotted (O). From 235 to 545 lysosomes were measured for each time point. The number of lysosomes per μm^2 (E) was determined at the beginning and end of this experiment and plotted on a separate Y-axis.

U2OS cells [2] = experiment: Tandem sensor RFP-GFP-LC3B: fraction of yellow (neutral pH) puncta; type: cell-based, human; conditions: 1 μM, 4 hrs
Method: Confocal microscopic images are shown in FIG. 12A of U2OS cells expressing a modified tandem sensor RFP-GFP-tagged LC3B protein in which the green signal from a mutated GFP was suppressed in an acidic environment, with little or no effect on the red signal from RFP. Thus, autophagosomes with neutral pH would fluoresce yellow, whereas autolysosomes with acidic pH would fluoresce red. These cells were treated with either vehicle or 1 μM compound 1 for 4 hrs. The fraction of yellow puncta, representing autophagosomes with a neutral pH, was quantified in 50 cells from each of three independent experiments (mean±SEM; Student's t-test, p<0.0001) as shown in FIG. 12B. The fraction of yellow puncta increased 4-fold in the presence of compound 1 (right side graph).
To determine whether the accumulation of autophagosomes resulted from induction of autophagy or from disruption of autophagic flux, cells were transfected with a vector expressing a modified tandem sensor RFP-GFP-tagged LC3B protein in which the green signal from a mutated GFP was suppressed in an acidic environment, with little or no effect on the red signal from RFP^41. Therefore, in merged images, only red puncta indicated acidic autolysosomes; yellow puncta indicated either autophagosomes or non-acidic autolysosomes. […]

melanoma A375 cells [3] = experiment: A375 cell proliferation (crystal violet plate assay); type: cell-based, human
embryonic kidney cells = experiment: Viability of embryonic kidney cells; type: cell-based; conditions: Homo sapiens; embryonic kidney cells; read-out: EC50
Method: FIG. 18 summarizes results from 13 human cell lines. All cells were seeded at the same cell density in a rich culture medium and assayed under identical conditions. Compound 1 efficacy is the ratio of cell viability with compound 1 to cell viability with chloroquine derivatives.
as §1, with “Results were the same using either heat-inactivated or normal fetal calf serum.” left out

melanoma A375 cells [4] = experiment: Cytoplasmic vacuolization of A375 cells; type: cell-based, human
melanoma A375 tumors [5] = experiment: Expansion of preformed A375 tumors in outbred nude mice; type: in vivo
Method: Melanoma A375 cells were inoculated subcutaneously into outbred nude mice on day 0 (broad arrow). Intraperitoneal injections (arrows) of vehicle (open circles), 20 mg compound 1 (grey circles), or 40 mg compound 1/kg (solid circle) of mouse weight were administered daily beginning with day 7 when palpable tumors were present. Each group contained three mice. SEMs are indicated. Error bars indicate the SEM for 6 tumors.
The genetic diversity of human populations is greater than the genetic diversity of inbred animals. Therefore, the experiment in FIG. 20 with inbred nude mice was repeated with outbred nude mice.

melanoma A375 tumors [6] = experiment: Vacuolation and autophagy markers within tumors of treated mice; type: in vivo
Source text: Cytoplasmic vacuolation was clear in tumors from compound 1-treated mice, and the extent of vacuolation was clearly greater at with greater concentrations of compound 1.
To determine whether or not compound 1 injected intraperitoneally was active within the tumor, tumor slices were stained with hematoxylin and eosin to visualize cellular structure.

## C1=Nc2ccccc2/C1=C/NNc1nc(Nc2ccccc2)nc(N2CCOCC2)n1 [compound 1]
Osteosarcoma U2OS cells; U2OS cells
  Time to detect vacuoles by light microscopy: ≤ 20 min
Osteosarcoma U2OS cells; U2OS cells, compound 1 compared to compound 3
  Variation of the concentration required to induce vacuolization, most potent compared to least potent: 400 fold
Osteosarcoma U2OS cells; by 4 hours
  Concentration at which 80% of the cells were vacuolated: 0.01 to 0.1 µM
Osteosarcoma U2OS cells; same U2OS cells
  Concentration to induce LC3-II accumulation, inhibit proliferation or viability relative to concentration to observe vacuolization: about 30 fold
U2OS cells [1]; live cells expressing LAMP1-RFP
  Time for lysosomal motility and size to revert after removal of the compound: within one hour
U2OS cells [1]; within 20 hours, 1 μM
  Increase in size of LAMP1-labeled vacuoles: 9 fold
U2OS cells [2]
  Increase in fraction of yellow puncta: 4 fold
  Puncta that were yellow in merged images: at least 80%
Melanoma A375 cells [3]
  Inhibition of proliferation of melanoma A375 cells: inhibited A375 cell proliferation
Melanoma A375 cells [3]; plate assays
  Efficacy at inhibiting A375 cell proliferation relative to HCQ or CQ: at least 100 times
Embryonic kidney cells
  EC50: > 10 µM
Melanoma A375 cells [4]
  Cytoplasmic vacuolization of A375 cells: induced extensive cytoplasmic vacuolization
Melanoma A375 tumors [5]; 20 or 40 mg/kg intraperitoneally daily, outbred nude mice
  Expansion of preformed tumors: inhibited by compound 1 in a dose dependent manner; also recorded: inhibited growth of tumors
Melanoma A375 tumors [5]; mice weighed each day during injections
  Ill effects on mice: no visible ill effects
Melanoma A375 tumors [6]; Western blot
  LC3-II and p62 proteins in tumor lysates: increased levels of LC3-H and p62 proteins
Melanoma A375 tumors [6]; hematoxylin and eosin
  Cytoplasmic vacuolation in tumor slices: clearly evident
